Laboratory results: patent US20250057791A1, “PROTECTION AGAINST ARTHROPOD PARASITES WITH PURINERGIC RECEPTOR (OPR) ANTAGONISTS” (priority 2021, published 2025)
Residues, ends and D or L forms follow the SMILES beside them.

Legend:
malaria mosquito P1 PR = experiment: Electrophysiological response to 200 pM adenosine with PR antagonist admixed; type: cell-based, Anopheles gambiae
Description: (§1) The tip recording method was used to record action potentials (spikes) from sensory cells in sensilla on A. gambiae labellum lobes.
Sensilla were exposed to test compounds and PR antagonists for ca. 2-4 s and spikes were counted in the first 2 s of recordings. Up to 4 test compounds were tested on a sensillum to evaluate potential agonists, each presented at 200 pM. To study responses as a function of dose for agonists ATP, adenosine, AMP, AMP-CPP and ATP+adenosine, up to 7 recordings were made at increasing doses of agonist from the same sensillum. Unless otherwise stated, recordings were made throughout from 4 to 16 sensilla from individual 4-6-day-old females per dose of agonist, antagonist and metal ion modulator. For example, a response curve established over 6 doses of an antagonist using 8 sensilla per dose involved recording from a sensillum of 48 separate mosquitoes. A given dose of a PR antagonist or metal ion modulator was only presented once to a sensillum. Two-second recordings were imported as ASCII files into DataView software for analysis of spike amplitude. […]
Pairwise comparisons of A. gambiae electrophysiological (EP) responses to ATP and adenosine alone and combined with a given dose of PR antagonist, EP responses to ATP alone and combined with a given dose of a metal modulator, and EP responses to ATP prior to and after exposure of a sensillum to a given dose of a PR antagonist were made with a one-tailed Wilcoxon signed-rank test for data showing a non-normal distribution, with a paired Student's t-test for normally distributed data showing homogeneous variance and with a Welch's t-test for normally distributed data showing non-homogeneous variance. […] Percent feeding inhibition induced by PR antagonists in A. stephensi was calculated using Abbott's formula.

A. gambiae = experiment: Membrane feeding assay, A. gambiae; type: in vivo, Anopheles gambiae; conditions: for effect on feeding on solution containing ATP, in words: 20 μM ATP, CPT at 10 μM
Description: (§2) Experiments with A. gambiae and A. stephensi were made in a climate chamber at 28° C. and 80% RH during the last 6 hours of scotophase. As a sugar meal can interfere with the blood meal by reducing the number of females that feed, the sucrose solution supplied in rearing cages to mosquitoes employed for feeding experiments was reduced to 5%. […] The 5% sucrose solution was presented to mosquitoes from emergence on four 1 cm diam. cotton dental rolls (Hartmann A G, Neuhausen, Switzerland) inserted in 10 ml upturned glass vials placed in holes at each corner of the rearing cage ceiling. Cotton rolls were turned daily in vials and renewed every two days. Mosquitoes were not fed blood and were deprived of sucrose 17 to 20 hours before experiments. Thirty min before a feeding experiment, between 10-25, 6-day-old females that responded to activation by human breath were removed with a mouth aspirator from the rearing cage wall and placed in polystyrol cylinders with the floor cut out (10 cm dm×15 cm high; Semadeni, Ostermundigen, Switzerland) that served as feeding cages. Each cage was covered with mosquito netting at one end and a soft polyurethane lid at the other.
(§3) Mosquitoes were fed for 30 min using a feeding system (Hemotek®, Hemotek Ltd, Blackburn, UK) consisting of 3.5 ml stainless steel reservoirs 37 mm in diameter covered with a 60-90 μm thick silicone-impregnated membrane (Kröber and Guerin, 2007 in “Feeding assays for hard ticks”, Trends in parasitology 23, 445-449; doi 10.1016/j.pt.2007.07.010). Feeding reservoirs reached a temperature of 37° C. within 10 min and were placed on the netting of feeding cages. Mosquitoes were activated using a 200 ms pulse of pure CO2 (volume 6.25 ml) from a pressurised cylinder (Carbagas, Switzerland) using a solenoid valve that caused the CO2 level in the feeding cage to rise to at least 1,500 ppm. Between 3 and 4 sets of 10 feeding cages held in a custom-built Ertacetal® POM frame were tested per day, depending of the number of female mosquitoes available from the colony.
(§4) All compounds were tested in a mosquito feeding solution (FS) consisting of 25 mM dextrose, 25 mM NaCl buffered with 8.93 mM NaHCO3 adjusted to pH 7.4. Feeding responses of A. gambiae and A. stephensi to ATP as a function of dose were tested with between 7 to 10 feeding cages per dose. Each feeding experiment with an antagonist systematically included a treatment containing the FS as negative control along with a treatment containing the FS with 20 pM ATP added as positive control for A. gambiae and with 160 pM ATP added as positive control for A. stephensi. These positive and negative controls permitted to monitor any effect of experimental day on feeding responses as a function of dose for antagonists that were recorded over several days. […] Four to 10 cages each with 10 to 29 mosquitoes were tested per antagonist dose. […] The number of feeding cages used to test other compounds and their mixtures as feeding stimulants or as feeding inhibitors is listed on Table 6. The percentage of fed mosquitoes was estimated by visual inspection of abdominal distention that is indicative of engorgement.
(§5) Pairwise comparisons of A. gambiae electrophysiological (EP) responses to ATP and adenosine alone and combined with a given dose of PR antagonist, EP responses to ATP alone and combined with a given dose of a metal modulator, and EP responses to ATP prior to and after exposure of a sensillum to a given dose of a PR antagonist were made with a one-tailed Wilcoxon signed-rank test for data showing a non-normal distribution, with a paired Student's t-test for normally distributed data showing homogeneous variance and with a Welch's t-test for normally distributed data showing non-homogeneous variance. […]

[1] = test system: A. gambiae mouthpart ATP-sensitive receptor; experiment: Electrophysiological response to 200 pM ATP with PR antagonist admixed; type: cell-based, Anopheles gambiae; conditions: for effect on EP response to ATP, in words: suramin at 1 nM; for ID95 in nM (±s.e.m.): increasing doses admixed to 200 pM ATP
Description: as §1
Sensilla were exposed to test compounds and PR antagonists for ca. 2-4 s and spikes were counted in the first 2 s of recordings. Up to 4 test compounds were tested on a sensillum to evaluate potential agonists, each presented at 200 pM. To study responses as a function of dose for agonists ATP, adenosine, AMP, AMP-CPP and ATP+adenosine, up to 7 recordings were made at increasing doses of agonist from the same sensillum. Unless otherwise stated, recordings were made throughout from 4 to 16 sensilla from individual 4-6-day-old females per dose of agonist, antagonist and metal ion modulator. For example, a response curve established over 6 doses of an antagonist using 8 sensilla per dose involved recording from a sensillum of 48 separate mosquitoes. A given dose of a PR antagonist or metal ion modulator was only presented once to a sensillum. Two-second recordings were imported as ASCII files into DataView software for analysis of spike amplitude. Differences in spike amplitude generated by stimulation of one 8v sensillum/female with 1 mM sucrose (n=294 spikes from 6 females) 200 pM adenosine (n=207 spikes from 7 females) and 200 pM ATP (n=192 spikes from 7 females) were compared by measuring the spike amplitude in mV between the highest point of depolarisation and the lowest point of hyperpolarisation.
Pairwise comparisons of A. gambiae electrophysiological (EP) responses to ATP and adenosine alone and combined with a given dose of PR antagonist, EP responses to ATP alone and combined with a given dose of a metal modulator, and EP responses to ATP prior to and after exposure of a sensillum to a given dose of a PR antagonist were made with a one-tailed Wilcoxon signed-rank test for data showing a non-normal distribution, with a paired Student's t-test for normally distributed data showing homogeneous variance and with a Welch's t-test for normally distributed data showing non-homogeneous variance. Effects on feeding of adding ATP, AMP-CPP, adenosine, ATP+adenosine, AMP and ADP-βS, CPT with ATP or adenosine, TMP with ATP+adenosine, TMP+CPT with ATP+adenosine to the FS for A. gambiae, and of adding PR antagonists with ATP to the FS for A. stephensi were compared using one-tailed Mann-Whitney U-test or Welch's t-test, depending on data distribution; Holm's FWEC was applied where treatment comparisons involved the same positive control. Percent feeding inhibition induced by PR antagonists in A. stephensi was calculated using Abbott's formula.
Dose-response models fitted to mosquito data were generated using the ‘drm’ command in the “drc” R package (version 2.5-12). Best fitting models (goodness of fit) and effects of dose of a compound were assessed using, respectively, ‘modelFit’ and ‘noEffect’ functions in the same R package. A 3-parameter logistic model (L3) was fitted to spike-counts recorded to increasing doses of adenosine, AMP, ATP and AMP-CPP. Spike numbers recorded in response to 200 pM ATP with increasing doses of PR antagonists added were analysed using a 4-parameter log-logistic model (LL.4) for A-317491 and spinorphin, using a 4-parameter Weibull model (W1.4) for PPADS, RB-2 and TMP, and using a 3-parameter log-logistic model (LL.3) for suramin. An L3 model was fitted to proportions of females feeding on increasing doses of ATP. Feeding rates on 20 μM ATP with increasing doses of a PR antagonist added were analysed using a 4-parameter log-logistic model (LL.4) with the median of the positive control (20 μM ATP) fixed as the upper asymptote. Response dynamics in 3-parameter models are related to the slope b, the upper asymptote, and inflexion point of the model e (the ED50 value), whereas 4 parameter models also include the lower asymptote parameter. […]

A. stephensi = experiment: Membrane feeding assay, A. stephensi; type: in vivo, Anopheles stephensi
Description: as §2, §3
as §4, with “with 20 pM ATP added as positive control for A. gambiae and with 160 pM ATP added as positive control for A. stephensi.” left out
as §5

## Cn1c(=O)c2[nH]c(C3CCCC3)nc2n(C)c1=O [CPT, 8-cyclopentyl-1,3-dimethylxanthine]
Malaria mosquito P1 PR; 200 pM adenosine, suramin at 1 nM
  effect on EP response to adenosine, in words: inhibited
Malaria mosquito P1 PR; adenosine presented again approximately 2 min after antagonist
  duration of inhibition of the response to adenosine: at least 2 min
A. gambiae; 10 μM CPT + 20 μM ATP
  % Engorged mosquitoes: 65.4 ± 10.2%
A. gambiae; 10 μM CPT + 1 mM Adenosine
  % Engorged mosquitoes: 48.7 ± 7.0%
A. gambiae; 10 μM CPT, 1 mM adenosine in feeding solution
  effect on feeding on adenosine, in words: significantly inhibited
A. gambiae
  effect on feeding on solution containing ATP, in words: not
[1]; 200 pM ATP
  effect on EP response to ATP, in words: not

## Cc1nc(/N=N/c2ccc(S(=O)(=O)O)cc2S(=O)(=O)O)c(COP(=O)(O)O)c(C=O)c1O [PPADS, pyridoxal phosphate-6-azophenyl-2′,4′-disulfonic acid]
A. stephensi; 800 μM, feeding solution with 160 μM ATP
  % Fed females (mean ± s.e.m.): 37.29 ± 3.75%
A. stephensi; Anopheles stephensi, 800 μM, Abbott's formula
  inhibition at 800 µM: 48.9%
A. stephensi; doses as in Table 8
  effect on feeding on solution containing ATP, in words: inhibited feeding
A. gambiae
  effect on feeding on solution containing ATP, in words: inhibited feeding
A. gambiae; antagonist 100 μM + 20 μM ATP
  % fed mosquitoes (mean ± s.e.m.), ATP + antagonist: 33.39%
[1]; antagonist 50 nM + 200 pM ATP
  Mean no. of spikes per 2 s (±s.e.m.), ATP + antagonist: 8.13 spikes per 2 s
[1]
  ID95 in nM (±s.e.m.): 12.66 nM

## Nc1c(S(=O)(=O)O)cc(Nc2ccc(Nc3nc(Cl)nc(Nc4cccc(S(=O)(=O)O)c4)n3)c(S(=O)(=O)O)c2)c2c1C(=O)c1ccccc1C2=O [RB-2, 1-amino-4-[[4-[[4-chloro-6-[[3 (or 4)-sulfophenyl]amino]-1,3,5-triazin-2-yl]amino]-3-sulfophenyl]amino]-9,10-dihydro-9,10-dioxo-2-anthracenesulfonic acid]
A. gambiae
  effect on feeding on solution containing ATP, in words: inhibited feeding
A. gambiae; antagonist 0.1 μM + 20 μM ATP
  % fed mosquitoes (mean ± s.e.m.), ATP + antagonist: 32.88%
[1]; 200 pM ATP
  persistent antagonism to ATP presented approximately 2 min later, in words: not
  effect on EP response to ATP, in words: inhibited
[1]; antagonist 50 nM + 200 pM ATP
  Mean no. of spikes per 2 s (±s.e.m.), ATP + antagonist: 12.83 spikes per 2 s
[1]
  ID95 in nM (±s.e.m.): 113.02 nM

## CC(C)C[C@H](N)C(=O)N[C@H](C(=O)N[C@H](C(=O)N[C@@H](Cc1ccc(O)cc1)C(=O)N1CCC[C@H]1C(=O)N[C@@H](Cc1c[nH]c2ccccc12)C(=O)N[C@H](C(=O)O)[C@@H](C)O)C(C)C)C(C)C [Spinorphin, L-leucyl-L-valyl-L-valyl-L-tyrosly-L-prolyl-L-tryptophyl-L-threonine] (H-LVVYPWT-OH)
A. gambiae; 100 nM, with 20 μM ATP
  % reduction in feeding: (100 nM, 27.31%)
A. gambiae
  effect on feeding on solution containing ATP, in words: inhibited feeding
A. gambiae; antagonist 100 nM + 20 μM ATP
  % fed mosquitoes (mean ± s.e.m.), ATP + antagonist: 46.62%
[1]; 200 pM ATP
  effect on EP response to ATP, in words: inhibited
[1]; antagonist 1 nM + 200 pM ATP
  Mean no. of spikes per 2 s (±s.e.m.), ATP + antagonist: 9.8 spikes per 2 s
[1]
  ID95 in nM (±s.e.m.): 0.43 nM
[1]; listed as spinorphin
  ID95 in nM (±s.e.m.): ca. 0.4 nM

## Cn1c(=O)c2[nH]cnc2n(C)c1=O [Theophylline, 1,3-dimethylxanthine]
Malaria mosquito P1 PR; 1 μM theophylline + 200 pM adenosine
  EP response, adenosine theophylline combination: 17.63±4.48 spikes/2s
